Laboratory results: patent US20030166648A1, “Felbamate derived compounds” (priority 2002, published 2003)
Marks after values point to notes of the source that are not given here.

How the values were obtained:
[1] = human; cited from earlier work
[2] = Minimal neurotoxicity (TOX), rotorod test, mice i.p.; assay type: in vivo; conditions: for TOX, number of animals exhibiting toxic effects/total number tested: mice i.p.
From the text: The fluoro derivatives synthesized were submitted to the National Institute of Neurological Disorders and Stroke (NINDS) for evaluation in a standard panel of assays. Two convulsant tests (MES and scMET), and a toxicity screen (rotorod in mice, positional sense and gait in rats) were employed for evaluating the compounds activity as neuroprotecting agents. These testing procedures are described in detail in Molecular and Cellular Targets for Anti-epileptic Drugs, eds. […] The felbamate derivatives were evaluated for anticonvulsant activity following intraperitoneal (i.p.) administration in mice and oral administration in rats. […]

[3] = tested on: MES-induced seizure spread; test: Maximal electroshock seizure (MES) test, rats p.o.; assay type: in vivo; conditions: for anti-seizure activity in rats (in words): rat models; for MES, number of animals protected/total number tested: rat p.o.
From the text: (§1) The fluoro derivatives synthesized were submitted to the National Institute of Neurological Disorders and Stroke (NINDS) for evaluation in a standard panel of assays. Two convulsant tests (MES and scMET), and a toxicity screen (rotorod in mice, positional sense and gait in rats) were employed for evaluating the compounds activity as neuroprotecting agents. These testing procedures are described in detail in Molecular and Cellular Targets for Anti-epileptic Drugs, eds. G. Avanzini, G. Regesta, P. Tanganelli, M. Avoli, 1997, John Libbey & Company Ltd, pp 191-198. The felbamate derivatives were evaluated for anticonvulsant activity following intraperitoneal (i.p.) administration in mice and oral administration in rats.
(§2) The Maximal Electroshock Seizure (MES)
(§3) The MES test is a model for generalized tonic-clonic seizures and is used to identify compounds which prevent seizure spread. The behavioral and electrographic seizures generated in this model are consistent with the human disorder. In the MES test, an electrical stimulus of 0.2 s in duration (50 mA in mice and 150 mA in rat at 60 Hz) was delivered via corneal electrodes primed with an electrolyte solution containing an anesthetic agent. Mice were tested at 30 minutes and 4 hours following doses of 30, 100 and 300 mg/kg of test compound. Rats were tested at time intervals between 0.25 and 4 hours following a standard oral dose of 30 mg/kg. Abolition of the hindlimb tonic extensor component indicates the test compound's ability to inhibit MES-induced seizure spread.
(§4) For the MES and scMET tests the data is presented in the form of the number of animals protected by the administered compound/total number of animals tested. […] Qualitative data was obtained for fluoro felbamate 12 (Tables 1 and 2A), fluoro monocarbamate felbamate 13 (Tables 1 and 2B), and fluorodioxo 16 (Tables 1 and 2C) and for cyclic felbamate 21 (Tables 5 and 6B) and cyclic monocarbamate 22 (Tables 5 and 6A). More extensive quantitative data was also obtained for fluoro felbamate 12 in mice (Table 3) and rats (Table 4).

[4] = Minimal neurotoxicity (TOX), positional sense and gait and stance tests, rats p.o.; assay type: in vivo; conditions: for TOX, number of animals exhibiting toxic effects/total number tested: rat p.o., 30 mg/kg
From the text: The fluoro derivatives synthesized were submitted to the National Institute of Neurological Disorders and Stroke (NINDS) for evaluation in a standard panel of assays. Two convulsant tests (MES and scMET), and a toxicity screen (rotorod in mice, positional sense and gait in rats) were employed for evaluating the compounds activity as neuroprotecting agents. These testing procedures are described in detail in Molecular and Cellular Targets for Anti-epileptic Drugs, eds. […] The felbamate derivatives were evaluated for anticonvulsant activity following intraperitoneal (i.p.) administration in mice and oral administration in rats.
Rats are examined for behavioral toxicity by the positional sense test and a gait and stance test. […] In the gait and stance test, neurotoxicity is indicated by a circular or zigzag gait, ataxia, abnormal spread of the legs, abnormal posture, tremor hyperactivity, lack of exploratory behavior, somnolence, stupor or catalepsy. […]

[5] = tested on: MES-induced seizure spread; test: Maximal electroshock seizure (MES) test, mice i.p.; assay type: in vivo; conditions: for MES, number of animals protected/total number tested: mice i.p.
From the text: as §1, §2, §3, §4

[6] = tested on: pentylenetetrazol-induced clonic seizures; test: Subcutaneous Metrazol seizure test (scMET), mice i.p.; assay type: in vivo
From the text: as §1
The Subcutaneous (Metrazol) Seizure Test (scMET)
This is a model that primarily identifies compounds that raise seizure threshold. With some minor exceptions, the pharmacological profile of the scMET seizure model is consistent with the human condition. The scMET test utilizes a dose of pentylenetetrazol (85 mg/kg in Carworth Farms No. 1 mice and 70 mg/kg in Sprague-Dawley rats) that induces clonic seizures lasting for a period of at least five seconds in 97% (CD97) of animals tested. At the anticipated time of testing the convulsant is administered subcutaneously. The test compound is administered intraperitoneally in mice and orally in rats. Animals are observed over a 30 minute period. Absence of clonic spasms in the observed time period indicates a compound's ability to abolish the effect of pentylenetetrazol on seizure threshold.
as §4

seizures = test: NINDS anticonvulsant panel (MES, scMET), overall statements; assay type: in vivo; conditions: for anti-seizure activity (in words): overall statement
From the text: as §1, §4

[7] = tested on: focal seizures of hippocampal kindled rats; test: Hippocampal kindling model (kindled rats), i.p.; assay type: in vivo, Sprague-Dawley rats; conditions: 100 mg/kg
From the text: The Hippocampal Kindling Model
The hippocampal kindling model can be used to evaluate a compound's ability to affect both the expression and acquisition of focal seizures. The hippocampal kindling paradigm as described by Lothman and Williamson (Lothman, 1994) allows the temporal effects of a drug to be evaluated in a single animal. This procedure requires the surgical placement of bipolar electrodes in the ventral hippocampus of adult male Sprague-Dawley rats. Stage five behavioral seizures are produced by using a stimulus consisting of a 50 Hz, 10 s train of 1 ms biphasic 200 uA pulses delivered every 30 min for 6 hours (12 stimuli per day) on alternating days for a total of 60 stimulations (five stimulus days). Prior to evaluating a candidate's anticonvulsant activity, a drug free control period consisting of supramaximal stimulations are recorded to verify the stability of a stage five generalized seizure.
A single dose of the candidate compound is then administered intraperitoneally (i.p.), 15 min following the last control stimulation. The anticonvulsant activity of the drug is assessed every 30 min for three to four hours starting 15 min after administering the test material. After each stimulation, individual Racine seizure scores and afterdischarge durations are recorded. Rats are used again in drug trials after four to five drug- and stimulus-free days.

[8] = Toxicity, oral administration to mice; assay type: in vivo; conditions: doses up to 218 mg/kg
Experimental: Toxicity induced by a compound is detected in mice using the standardized rotorod test described by Dunham & Miya (1957). Untreated control mice, when placed on a 6 r.p.m. rotation rod, can maintain their equilibrium for a prolonged period of time.
Toxicity across time doe not occur until dosages of 300 mg/kg. […] Quantitative results obtained for fluoro felbamate 12 in mice indicated a MES ED50 of approximately 20 mg/kg with a safety ratio of at least five (see Table 3). Results obtained for oral administration of fluoro felbamate 12 to rats indicated a MES ED50 of about 3 mg/kg with no toxicity at doses up to 500 mg/kg.

Structure (SMILES)	TOX, number of animals exhibiting toxic effects/total number tested ([2]; 30 mg/kg, 0.5 h)	TOX, number of animals exhibiting toxic effects/total number tested ([2]; 30 mg/kg, 4.0 h)	TOX, number of animals exhibiting toxic effects/total number tested ([2]; 100 mg/kg, 0.5 h)	TOX, number of animals exhibiting toxic effects/total number tested ([2]; 100 mg/kg, 4.0 h)	TOX, number of animals exhibiting toxic effects/total number tested ([2]; 300 mg/kg, 0.5 h)	TOX, number of animals exhibiting toxic effects/total number tested ([2]; 300 mg/kg, 4.0 h)	anti-seizure activity in rats (in words) [3]	TOX, number of animals exhibiting toxic effects/total number tested ([4]; 0.25 h)	TOX, number of animals exhibiting toxic effects/total number tested ([4]; 0.5 h)	TOX, number of animals exhibiting toxic effects/total number tested ([4]; 1.0 h)	TOX, number of animals exhibiting toxic effects/total number tested ([4]; 2.0 h)	TOX, number of animals exhibiting toxic effects/total number tested ([4]; 4.0 h)	anti-seizure activity (in words) (seizures)	other results
NC(=O)CC(C(=O)O)c1ccccc1 (stereo not shown) [acid carbamate 4, 3-carbamoyl-2-phenylpropionic acid]														fraction of a felbamate dose found as acid carbamate [1]: ~12%
O=C1NC(=O)C(F)(c2ccccc2)CO1 (stereo not shown) [fluoro dioxo, 5-Fluoro-5-phenyl-1,3-oxazinane2,4-dione]	0/4	0/2	0/8	0/4	1/4	0/2	strong anti-seizure activity	0/4	0/4	0/4	0/4	0/4		anti-seizure activity in mice (in words) ([5]; mice, MES and scMET (Table 1)): inactive
NC(=O)OCC1(c2ccccc2)COC(=O)N1 (stereo not shown) [cyclic felbamate]	0/4	0/2	0/8	0/4	0/4	0/2	potent activity	0/4	0/4	0/4	0/4	0/4		MES, number of animals protected/total number tested ([3]; 30 mg/kg, 0.25 h): 2/4; MES, number of animals protected/total number tested ([3]; 30 mg/kg, 0.5 h): 2/4; MES, number of animals protected/total number tested ([3]; 30 mg/kg, 1.0 h): 3/4; MES, number of animals protected/total number tested ([3]; 30 mg/kg, 2.0 h): 0/4; MES, number of animals protected/total number tested ([3]; 30 mg/kg, 4.0 h): 3/4; ScMET, number of animals protected/total number tested ([6]; 30 mg/kg, 0.5 h): 0/1; ScMET, number of animals protected/total number tested ([6]; 30 mg/kg, 4.0 h): 0/1; ScMET, number of animals protected/total number tested ([6]; 100 mg/kg, 0.5 h): 0/1; ScMET, number of animals protected/total number tested ([6]; 100 mg/kg, 4.0 h): 0/1; ScMET, number of animals protected/total number tested ([6]; 300 mg/kg, 0.5 h): 0/1; ScMET, number of animals protected/total number tested ([6]; 300 mg/kg, 4.0 h): 0/1; MES, number of animals protected/total number tested ([5]; 30 mg/kg, 0.5 h): 0/1; MES, number of animals protected/total number tested ([5]; 30 mg/kg, 4.0 h): 0/1; MES, number of animals protected/total number tested ([5]; 100 mg/kg, 0.5 h): 0/3; MES, number of animals protected/total number tested ([5]; 100 mg/kg, 4.0 h): 0/3; MES, number of animals protected/total number tested ([5]; 300 mg/kg, 0.5 h): 0/1; MES, number of animals protected/total number tested ([5]; 300 mg/kg, 4.0 h): 0/1
NC(=O)OCC(F)(CO)c1ccccc1 (stereo not shown) [fluoro monocarbamate felbamate, 2-Fluoro-2-phenyl-1,3-propanediol monocarbamate]	0/4	0/2	3/8	0/4	2/4	0/2		0/4	0/4	0/4	0/4	0/4	show anti-seizure activity	MES protection (in words) ([5]; mice, 100 mg/kg): moderate MES protection
NC(=O)OCC(F)(COC(N)=O)c1ccccc1 [fluoro felbamate, 2-Fluoro-2-phenyl-1,3-propanediol dicarbamate]	1/4	0/2	4/8	0/4	4/4	2/2		0/4	0/4	0/4	0/4	1/4	show anti-seizure activity	TOX, number of animals exhibiting toxic effects/total number tested ([2]; 3 mg/kg, 0.5 h): 0/4; TOX, number of animals exhibiting toxic effects/total number tested ([2]; 3 mg/kg, 4.0 h): 0/4; TOX, number of animals exhibiting toxic effects/total number tested ([2]; 10 mg/kg, 0.5 h): 0/4; TOX, number of animals exhibiting toxic effects/total number tested ([2]; 10 mg/kg, 4.0 h): 0/4; safety ratio ([2]; mice, relative to MES ED50): at least five; MES ED50 ([3]; rat, p.o.): 3.0 mg/kg; MES protection (in words) ([3]; rats p.o., 30 mg/kg, over several timepoints): full protection; toxicity ([4]; oral administration to rats, doses up to 500 mg/kg): no toxicity; MES protection (in words) ([5]; mice, 30 mg/kg, at both 30 minutes and 4 hours): MES protective effects; effect on afterdischarge duration (in words) [7]: corresponding decrease in afterdischarge duration; effect on seizure score (in words) [7]: significant drop in seizure score; Number Protected / Number Tested ([7]; Dose Responses, i.p.): 7/8^a; toxicity [8]: no toxicity; activity relative to felbamate (times more active) (seizures; test not specified): 5-10 times
